{"source": "patent EP0035619B1", "about": "“Derivatives of 3-amino-(1H,3H)-2,4-quinazolin-diones” (BERRI-BALZAC Société dite:, priority 1980, dated 1981)", "type_in_all_cases": "in vivo", "key": {"souris": {"test_system": "souris", "experiment": "Sedative action: sedation index (hole-board exploration, hypothermia, mobility, agility)", "description": "(§1) L'action sédative est mesurée par un indice de sédation. Cet indice de sédation tient compte du pourcentage, chez la souris, de la diminution de l'exploration de la planche à trous par rapport à des témoins, de l'hypothermie, de la mobilité, de l'agilité. Les résultats pour le composé de l'exemple 3, sont donnés au Tableau Il.\nas §1, with “3” for “3,”, “II.” for “Il.”"}, "rat vigile": {"test_system": "rat vigile", "experiment": "Diuretic action in the conscious rat with i.p. isotonic sodium chloride load", "conditions": "mean increase of diuresis versus mean of controls", "protocol": "(§2) L'action diurétique est mesurée sur le rat vigile traité par 25 ou 50 mg/kg de substance à tester prise par voie orale ou intrapéritonéale et recevant une injection I.P. de soluté isotonique de chlorure de sodium au début de l'essai. Les rats sont groupés par trois et les expériences sont répétées en croisant les lots de rats.\nLa diurèse est exprimée par le pourcentage de l'augmentation moyenne de la diurèse par rapport à la moyenne des témoins.\nas §2, with “IP” for “I.P.”"}, "[1]": {"experiment": "Potentiation of psychotropic drugs (Nembutal, Chlorpromazine, morphine) and antagonism of amphetamine", "description": "(§3) D'autre part, il faut noter une potentialisation par les composés de formule (I) des psychotropes : Nembutal, Chlorpromazine, morphine, et un antagoniste de l'amphétamine. A titre d'exemple, le composé de l'exemple 3 potentialise l'effet hypnotique du Nembutal de + 146 %, celui de la Chlorpromazine de + 50 % et celui de la morphine de 40 %. Par contre, il antagonise à 70 % les effets de l'amphétamine.\nas §3, with “morphine” for “morphine,”"}, "souris Swiss": {"test_system": "souris Swiss", "experiment": "Acute toxicity (LD50) in Swiss mice", "protocol": "Les toxicités aiguës ont été déterminées sur la souris Swiss.\nPar exemple, pour le composé de l'exemple 3, la DL50 par voie IP est de 250 mg et per os de 225 mg."}}}
{"smiles": "CN(C)n1c(=O)c2ccccc2n(C)c1=O", "note": "[Exemple 3, diméthylamino-3 méthyl-1 (1 H, 3H) quinazolinedione-2,4]", "values": [{"measurement": "Indice de sédation", "setting": "souris; 50 mg/kg per os", "value": 76}, {"measurement": "Indice de sédation", "setting": "souris; 100 mg/kg per os", "value": 164}, {"measurement": "Indice de sédation chimique", "setting": "souris; 100 mg/kg per os", "value": 179}, {"measurement": "Indice de sédation", "setting": "souris; 100 mg/kg voie I.P.", "value": 236}, {"measurement": "Diurèse", "setting": "rat vigile; 25 mg/kg par voie IP", "value": 60, "unit": "%"}, {"measurement": "Diurèse", "setting": "rat vigile; 25 mg/kg par voie orale", "value": 77, "unit": "%"}, {"measurement": "Diurèse", "setting": "rat vigile; 50 mg/kg par voie IP", "value": 200, "unit": "%"}, {"measurement": "Diurèse", "setting": "rat vigile; 50 mg/kg par voie orale", "value": 200, "unit": "%"}, {"measurement": "potentialise l'effet de la Chlorpromazine", "setting": "[1]; with Chlorpromazine", "value": 50, "unit": "%"}, {"measurement": "potentialise l'effet hypnotique du Nembutal", "setting": "[1]; with Nembutal", "value": 146, "unit": "%"}, {"measurement": "antagonise les effets de l'amphétamine", "setting": "[1]; with amphétamine", "value": 70, "unit": "%"}, {"measurement": "potentialise l'effet de la morphine", "setting": "[1]; with morphine", "value": 40, "unit": "%"}, {"measurement": "DL50", "setting": "souris Swiss; par voie IP", "value": 250, "unit": "mg"}, {"measurement": "DL50", "setting": "souris Swiss; per os", "value": 225, "unit": "mg"}]}
